Test results: PubChem BioAssay AID248 (DTP/NCI, 2004)
Where “and” joins values, the source holds several entries; their conditions need not be identical. Equal values may be shown once. Inconclusive results and toxic doses are left out. Cut-off read from the data, not from the text of the source: active = T/C of 150% or more; inactive = T/C below 125%.

System: L1210 leukemia ip in BDF1 mice, survival T/C
Experiment: NCI In Vivo Anticancer Drug Screen. Data for tumor model L1210 Leukemia (intraperitoneal) in B6D2F1 (BDF1) mice
Conditions: endpoint: mean survival time, higher = longer survival
How it was run: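 Mice bearing the transplanted tumor received compound or vehicle. Survival of the treated group was divided by that of the vehicle-treated control group to give the ratio.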

[1] = dose: 75.0 mg/kg/injection, schedule: Q01DX001 (ip), vehicle: saline
[2] = dose: 100.0 mg/kg/injection, schedule: Q04DX003 (ip), vehicle: saline with Tween-80
[3] = dose: 200.0 mg/kg/injection, schedule: Q04DX003 (ip), vehicle: saline with Tween-80
[4] = dose: 100.0 mg/kg/injection, schedule: Q01DX009 (ip), vehicle: saline
[5] = dose: 200.0 mg/kg/injection, schedule: Q01DX009 (ip), vehicle: saline
[6] = dose: 400.0 mg/kg/injection, schedule: Q01DX009 (ip), vehicle: saline
[7] = dose: 100.0 mg/kg/injection, schedule: Q04DX002 (ip), vehicle: saline with Tween-80
[8] = dose: 200.0 mg/kg/injection, schedule: Q04DX002 (ip), vehicle: saline with Tween-80
[9] = dose: 100.0 mg/kg/injection, schedule: Q04DX003 (ip), vehicle: saline
[10] = dose: 200.0 mg/kg/injection, schedule: Q04DX003 (ip), vehicle: saline
[11] = dose: 400.0 mg/kg/injection, schedule: Q04DX003 (ip), vehicle: saline
[12] = dose: 100.0 mg/kg/injection, schedule: Q01DX001 (ip), vehicle: saline with Tween-80
[13] = dose: 200.0 mg/kg/injection, schedule: Q01DX001 (ip), vehicle: saline with Tween-80
[14] = dose: 100.0 mg/kg/injection, schedule: Q01DX009 (ip), vehicle: saline with Tween-80
[15] = dose: 200.0 mg/kg/injection, schedule: Q01DX009 (ip), vehicle: saline with Tween-80

Measured: T/C

OCC1(CO)CCC1(CO)CO
inactive: [1] 106 % of control | dose: 75.0 mg/kg/injection, schedule: Q01DX009 (ip), vehicle: saline 105 % of control | dose: 150.0 mg/kg/injection, schedule: Q01DX001 (ip), vehicle: saline 102 % of control | dose: 150.0 mg/kg/injection, schedule: Q01DX009 (ip), vehicle: saline 105 % of control | dose: 300.0 mg/kg/injection, schedule: Q01DX001 (ip), vehicle: saline 98 % of control | dose: 300.0 mg/kg/injection, schedule: Q01DX009 (ip), vehicle: saline 97 % of control

O=C(NCCCCCCNC(=O)OCc1ccccc1)OCc1ccccc1
inactive: dose: 10.0 mg/kg/injection, schedule: Q01DX Z (ip), vehicle: saline 98 % of control | dose: 30.0 mg/kg/injection, schedule: Q01DX Z (ip), vehicle: saline 96 % of control | dose: 100.0 mg/kg/injection, schedule: Q01DX Z (ip), vehicle: saline 100 % of control | dose: 300.0 mg/kg/injection, schedule: Q01DX Z (ip), vehicle: saline 98 % of control

O=C(O)c1cc(-c2ccc(Cl)cc2)nc2c(Cl)cccc12
inactive: dose: 20.0 mg/kg/injection, schedule: Q01DX009 (ip), vehicle: Klucel (hydroxypropylcellulose) (HPC) 95 % of control | dose: 20.0 mg/kg/injection, schedule: Q04DX003 (ip), vehicle: Klucel (hydroxypropylcellulose) (HPC) 107 % of control | dose: 40.0 mg/kg/injection, schedule: Q01DX009 (ip), vehicle: Klucel (hydroxypropylcellulose) (HPC) 103 % of control | dose: 40.0 mg/kg/injection, schedule: Q04DX003 (ip), vehicle: Klucel (hydroxypropylcellulose) (HPC) 100 % of control | dose: 80.0 mg/kg/injection, schedule: Q01DX009 (ip), vehicle: Klucel (hydroxypropylcellulose) (HPC) 108 % of control | dose: 80.0 mg/kg/injection, schedule: Q04DX003 (ip), vehicle: Klucel (hydroxypropylcellulose) (HPC) 97 % of control

O=c1n(CCCl)c(=O)n(CCCl)c(=O)n1CCCl
inactive: dose: 50.0 mg/kg/injection, schedule: Q04DX003 (ip), vehicle: saline with Tween-80 103 % of control | [2] 88 % of control | [3] 96 % of control and 87 % of control | dose: 400.0 mg/kg/injection, schedule: Q04DX003 (ip), vehicle: saline with Tween-80 98 % of control

O=C(Nc1ccc(Cl)c(Cl)c1)OCC#CCOC(=O)Nc1ccc(Cl)c(Cl)c1
inactive: [4] 99 % of control | [5] 91 % of control | [6] 88 % of control

c1cc[c]([Ge]([CH2][CH2][Sn]([c]2ccccc2)([c]2ccccc2)[c]2ccccc2)([CH2][CH2][Sn]([c]2ccccc2)([c]2ccccc2)[c]2ccccc2)[c]2ccccc2)cc1
inactive: [7] 98 % of control | [8] 102 % of control | dose: 400.0 mg/kg/injection, schedule: Q04DX002 (ip), vehicle: saline with Tween-80 94 % of control

CC[N+](C)(CC)CCNC(c1ccc(OC)c(OC)c1)C(Cl)(Cl)Cl (stereo not given)
inactive: [1] 88 % of control

C[Si](C)(O[Si](C)(C)c1ccccc1)c1ccccc1
inactive: dose: 20.0 mg/kg/injection, schedule: Q01DX009 (ip), vehicle: saline 93 % of control | dose: 40.0 mg/kg/injection, schedule: Q01DX009 (ip), vehicle: saline 90 % of control | dose: 80.0 mg/kg/injection, schedule: Q01DX009 (ip), vehicle: saline 87 % of control | [4] 95 % of control | [9] 103 % of control | [5] 107 % of control | [10] 100 % of control | [11] 97 % of control

CS(=O)(=O)OC1C(N=[N+]=[N-])CN(C(=O)c2ccccc2)C1CCOC(=O)c1ccccc1 (stereo not given)
inactive: [12] 102 % of control | [13] 96 % of control | dose: 400.0 mg/kg/injection, schedule: Q01DX001 (ip), vehicle: saline with Tween-80 96 % of control

CCOC(CN=Cc1ccccn1)OCC
inactive: [9] 97 % of control | [10] 91 % of control | [11] 90 % of control

O=N[O-].O=N[O-].[Co].[NH2-].[NH2-].[NH2-].[NH2-]
inactive: [7] 112 % of control

O=C(CCCc1ccc(N(CCCl)CCCl)cc1)Nc1ccc(F)cc1
inactive: dose: 4.0 mg/kg/injection, schedule: Q12HX018 (ip), vehicle: other 103 % of control | dose: 6.0 mg/kg/injection, schedule: Q12HX018 (ip), vehicle: other 106 % of control | dose: 8.0 mg/kg/injection, schedule: Q12HX018 (ip), vehicle: other 104 % of control

Cc1ccc(NC(=O)Nc2cccc(F)c2)cc1C
inactive: dose: 100.0 mg/kg/injection, schedule: Q01DX009 (ip), vehicle: Klucel (hydroxypropylcellulose) (HPC) 94 % of control | dose: 200.0 mg/kg/injection, schedule: Q01DX009 (ip), vehicle: Klucel (hydroxypropylcellulose) (HPC) 97 % of control | dose: 400.0 mg/kg/injection, schedule: Q01DX009 (ip), vehicle: Klucel (hydroxypropylcellulose) (HPC) 95 % of control

CCOC(=O)c1ccc(NCc2nnc3nc(N)[nH]c(=O)c3n2)cc1
inactive: dose: 50.0 mg/kg/injection, schedule: Q01DX001 (ip), vehicle: saline with Tween-80 102 % of control | [12] 96 % of control | [13] 98 % of control

CCOC(=O)c1ccc(NC(=S)NC(=O)c2ccccc2)cc1
inactive: [7] 100 % of control | [8] 94 % of control

CCOc1ccc(C(=O)Nc2ccc(C3=NCCN3)cc2)cc1C(=O)Nc1ccc(C2=NCCN2)cc1
inactive: dose: 30.0 mg/kg/injection, schedule: Q01DX Z (oral), vehicle: saline 93 % of control | dose: 60.0 mg/kg/injection, schedule: Q01DX Z (oral), vehicle: saline 91 % of control | dose: 62.5 mg/kg/injection, schedule: Q01DX010 (oral), vehicle: saline 107 % of control | dose: 120.0 mg/kg/injection, schedule: Q01DX Z (oral), vehicle: saline 103 % of control | dose: 125.0 mg/kg/injection, schedule: Q01DX010 (oral), vehicle: saline 112 % of control | dose: 240.0 mg/kg/injection, schedule: Q01DX Z (oral), vehicle: saline 92 % of control | dose: 250.0 mg/kg/injection, schedule: Q01DX010 (oral), vehicle: saline 112 % of control | dose: 500.0 mg/kg/injection, schedule: Q01DX010 (oral), vehicle: saline 106 % of control

O=C(O)C1C(C(=O)O)C2(Cl)C(Cl)=C(Cl)C1(Cl)C2(Cl)Cl.[Fe] (stereo not given)
inactive: dose: 25.0 mg/kg/injection, schedule: Q01DX009 (ip), vehicle: saline sonified 93 % of control | dose: 25.0 mg/kg/injection, schedule: Q04DX003 (ip), vehicle: saline 94 % of control | dose: 44.0 mg/kg/injection, schedule: Q01DX Z (ip), vehicle: carboxymethylcellulose (CMC) 92 % of control | dose: 50.0 mg/kg/injection, schedule: Q01DX001 (ip), vehicle: saline sonified 104 % of control | dose: 50.0 mg/kg/injection, schedule: Q01DX009 (ip), vehicle: saline sonified 93 % of control | dose: 50.0 mg/kg/injection, schedule: Q04DX003 (ip), vehicle: saline 95 % of control and 86 % of control | dose: 67.0 mg/kg/injection, schedule: Q01DX Z (ip), vehicle: carboxymethylcellulose (CMC) 91 % of control | dose: 100.0 mg/kg/injection, schedule: Q01DX001 (ip), vehicle: saline sonified 102 % of control | dose: 100.0 mg/kg/injection, schedule: Q01DX009 (ip), vehicle: saline sonified 93 % of control | [9] 103 % of control | dose: 200.0 mg/kg/injection, schedule: Q01DX001 (ip), vehicle: saline sonified 98 % of control

OC(C1CCCCN1)C12CC3CC(CC(C3)C1)C2 (stereo not given)
inactive: dose: 50.0 mg/kg/injection, schedule: Q01DX009 (ip), vehicle: saline with Tween-80 104 % of control | [14] 98 % of control | [2] 105 % of control | [3] 95 % of control

CNC(=O)c1nc(C)c(C)nc1OCc1ccccc1
inactive: [4] 106 % of control | [9] 96 % of control | [5] 92 % of control | [10] 94 % of control | [6] 87 % of control | [11] 96 % of control

c1ccc2c(c1)-c1ccccc1[Si]21c2ccccc2-c2ccccc21
inactive: [14] 97 % of control | [15] 92 % of control | dose: 400.0 mg/kg/injection, schedule: Q01DX009 (ip), vehicle: saline with Tween-80 91 % of control

CCNC(=O)N(C)Cc1ccc(Cl)cc1
inactive: [14] 88 % of control | [15] 95 % of control

CN(C)CCC(=O)c1ccc2ccccc2c1
inactive: dose: 9.38 mg/kg/injection, schedule: Q01DX001 (ip), vehicle: saline 100 % of control | dose: 18.75 mg/kg/injection, schedule: Q01DX001 (ip), vehicle: saline 101 % of control | dose: 37.5 mg/kg/injection, schedule: Q01DX001 (ip), vehicle: saline 105 % of control
